From patent US5814488A (priority 1993, dated 1998)
≈ marks a conversion by molar mass, not a printed value. Where two headings read alike, the source gives them in different places.

Legend:
Pseudomonas sp. = assay: Comparison of MIC and MBC (Tables 5 and 6); type: cell-based; settings: Pseudomonas sp.
Excerpt: (§1) […]. […] […]

Escherichia coli = assay: Comparison of MIC and MBC (Tables 5 and 6); type: cell-based
Excerpt: as §1

Klebsiella pneumoniae = assay: Comparison of MIC and MBC (Tables 5 and 6); type: cell-based
Excerpt: as §1

S. aureus = assay: Comparison of MIC and MBC (Tables 5 and 6); type: cell-based; settings: for MBC range: in µg/mL (unit assumed)
Excerpt: as §1

Shigella = assay: Comparison of MIC and MBC (Tables 5 and 6); type: cell-based
Excerpt: as §1

[1] = comparison value for MCR, source not stated in block, cited from earlier work
[2] = Nephrotoxicity to rat after i.m. administration; settings: gentamicin at 150 MKD and 100 MKD from seventh day
[3] = Ototoxicity to guinea pig: cochleatoxicity
[4] = clinical use; cited from earlier work
[5] = Table 5, number 2, unit assumed
[6] = Table 6, 20 strains, in µg/mL (unit assumed)
[7] = Table 6, 20 strains, unit assumed
[8] = Table 5, 20 strains, unit assumed
[9] = Table 5, S. aureus, 31 strains, unit assumed
[10] = Table 5, 10 strains, unit assumed

Work on NC[C@H]1O[C@H](O[C@H]2[C@H](O)[C@@H](O[C@H]3O[C@H](CO)[C@@H](O)[C@H](N)[C@H]3O)[C@H](N)C[C@@H]2N)[C@H](O)[C@@H](O)[C@@H]1O [Kanamicin, Kanamycin] yielded an MBC (Pseudomonas sp.; Table 6, 20 strains, read-out: MBC90) of 128 µg/mL (≈ 264 µM), an MBC (Pseudomonas sp.; Table 6, 20 strains, read-out: MBC range) of 2 to 256 µg/mL (≈ 4.13 to 528 µM) and an MBC (Escherichia coli; read-out: MBC90) of 8 µg/mL (≈ 16.5 µM). For the same compound, the MBC (Escherichia coli; read-out: MBC range) was 0.5 to 128 µg/mL (≈ 1.03 to 264 µM), the MBC (Klebsiella pneumoniae; read-out: MBC90) was 4 µg/mL (≈ 8.26 µM) and the MBC (Klebsiella pneumoniae; read-out: MBC range) was 0.25 to 4 µg/mL (≈ 0.516 to 8.26 µM). For the same compound, the MBC (S. aureus; Staphylococcus aureus, read-out: MBC90) was 64 µg/mL (≈ 132 µM), the MBC range (S. aureus; Table 6, S. aureus, 31 strains) was 0.125-128 and the MBC (Shigella; Table 6, 10 strains, read-out: MBC90) was 2 µg/mL (≈ 4.13 µM). For the same compound, the MBC (Shigella; Table 6, 10 strains, read-out: MBC range) was 0.5 to 4 µg/mL (≈ 1.03 to 8.26 µM).
For CNC[C@@H]1CC[C@@H](N)[C@@H](O[C@H]2[C@H](O)[C@@H](O[C@H]3OC[C@](C)(O)[C@H](NC)[C@H]3O)[C@H](N)C[C@@H]2N)O1 [MCR, Micronomicin], the “dosage of general safety” value ([1]; 129600 min) is given as 25 MKD and the “dosage showing apparent intoxication” value [1] is given as 63 MKD.
For Gentamicin, the MBC50 (Pseudomonas sp.; [5]) was 2 µg/mL, the MBC90 (Pseudomonas sp.; [5]) was 8 µg/mL and the MIC50 (Pseudomonas sp.; [5]) was 2 µg/mL. For the same compound, the MIC90 (Pseudomonas sp.; [5]) was 4 µg/mL, the MBC range (Pseudomonas sp.; [6]) was 0.5-16 and the MBC90 (Pseudomonas sp.; [7]) was 8 µg/mL. For the same compound, the MBC50 (Escherichia coli; [8]) was 0.5 µg/mL, the MBC90 (Escherichia coli; [8]) was 1 µg/mL and the MIC50 (Escherichia coli; [8]) was 0.125 µg/mL. For the same compound, the MIC90 (Escherichia coli; [8]) was 0.25 µg/mL, the MBC range (Escherichia coli; [6]) was 0.125-8 and the MBC90 (Escherichia coli; [7]) was 1 µg/mL. It also gave an MBC50 (Klebsiella pneumoniae; [8]) of 0.25 µg/mL, an MBC90 (Klebsiella pneumoniae; [8]) of 1 µg/mL and an MIC50 (Klebsiella pneumoniae; [8]) of 0.125 µg/mL. The MIC90 (Klebsiella pneumoniae; [8]) was 0.25 µg/mL, the MBC range (Klebsiella pneumoniae; [6]) was 0.062-2 and the MBC90 (Klebsiella pneumoniae; [7]) was 1 µg/mL. The MBC50 (S. aureus; [9]) was 0.5 µg/mL, the MBC90 (S. aureus; [9]) was 2 µg/mL and the MIC50 (S. aureus; [9]) was 0.125 µg/mL. For the same compound, the MIC90 (S. aureus; [9]) was 0.5 µg/mL, the MBC range (S. aureus; Table 6, S. aureus, 31 strains) was 0.062 and the MBC90 (S. aureus; Table 6, S. aureus, 31 strains, unit assumed) was 2 µg/mL. The MBC50 (Shigella; [10]) was 0.25 µg/mL, the MBC90 (Shigella; [10]) was 1 µg/mL and the MIC90 (Shigella; [10]) was 0.25 µg/mL. For the same compound, the MBC range (Shigella; Table 6, 10 strains, in µg/mL (unit assumed)) was 0.125-1, the MBC90 (Shigella; Table 6, 10 strains, unit assumed) was 1 µg/mL and the dead animals [2] was “gradually increased”. The hair cell morphology ([3]; high dosage) was “large number of necrotized hair cell, even stand cell and nerve cell were observed”, the auditory function ([3]; high dosages) was “nearly all the auditory function of the animals were lost” and the hair cell morphology ([3]; low and middle dosages) was “scattered necrotized hair cell and scar formation were observed”. The ABR threshold ([3]; middle dosages) was “increases of ABR threshold were observed” and the side-effects [4] was “side-effects of ototoxicity and nephrotoxicity”.
